Data set [1] concerns RS4;11 cells. Briefly: RS4;11 cell viability (CCK-8) assay. As to conditions: 4 days, read-out: RS4;11 IC50 (Bcl-2 dependent). It is filed as cell-based, human. On the procedure:
RS4;11 cells were obtained from American Type Culture Collection (ATCC). They were used within three months of thawing fresh vials. Cells were maintained in the recommended culture medium with 10% FBS at 37° C. and an atmosphere of 5% CO2.
The effect of representative Compounds of the Disclosure on cell viability was determined using Cell Counting Kit-8 (CCK-8) assay (Dojindo, Rockville, Md.) according to the manufacturer's instructions. 200 μL of a RS4;11 cell suspension (10000 cells/well) in culture medium were seeded into 96-well plates and cultured overnight. Each tested compound was serially diluted in culture medium, and 20 μL of the compound dilution was added to the corresponding well of the cell plate. After the addition of the tested compound, the cells were incubated at 37° C. in an atmosphere of 5% CO2 for 4 days. At the end of 4 days, 10 μL of CCK-8 solution was added to each well of the plate and incubated for 1-4 hours. The plates were read at 450 nm on the microplate spectrophotometer (Epoch2, BioTek). The readings were normalized to the vehicle cells, and the IC50 was calculated by nonlinear regression analysis using GraphPad Prism 5 software.

In data set [2] the target is Bcl-2 (Homo sapiens (Human), UniProt P10415). Briefly: Fluorescence polarization competitive binding assay, Bcl-2. As to conditions: FP competition with Flu-BIM probe; read-out: Inhibitory activity IC50 Bcl-2.
Description: (§1) Fluorescence polarization values were measured using the Infinite M-1000 plate reader (Tecan U.S., Research Triangle Park, N.C.) in Microfluor 1 96-well, black, round-bottom plates (Thermo Scientific). […] Plates were mixed and incubated at room temperature for 1 hour with gentle shaking to assure equilibrium. […] Equilibrium dissociation constants (Kd) were then calculated by fitting the sigmoidal dose-dependent FP increases as a function of protein concentrations using Graphpad Prism 5.0 software (Graphpad Software, San Diego, Calif.).
(§2) Mixtures of 5 μl of the tested inhibitors in DMSO and 120 μl of pre-incubated protein/probe complexes in the assay buffer were added into assay plates and incubated at room temperature for 2 hours with gentle shaking. […] FP values were measured as described above. IC50 values were determined by nonlinear regression fitting of the competition curves.
Data set [3] deals with Bcl-xL (Homo sapiens (Human), UniProt Q07817). As to the kind of experiment: Fluorescence polarization competitive binding assay, Bcl-xL. The settings on record: FP competition with Flu-BAK probe; read-out: Inhibitory activity IC50 Bcl-xL.
Description: as §1, §2
Data set [4] has as its target Mcl-1 (Homo sapiens (Human), UniProt Q07820). As to the kind of experiment: Fluorescence polarization competitive binding assay, Mcl-1. As to conditions: FP competition with Flu-BID probe; read-out: Inhibitory activity IC50 Mcl-1.
Description: as §1, §2
The subject of data set [5] is RS4;11 leukemia xenograft. As to the kind of experiment: RS4;11 leukemia xenograft model. The settings on record: oral gavage, nude mice. It counts as in vivo. On the procedure: The antitumor activity of Cpd. No. 6 (compound 6) was also studied in the RS4;11 leukemia xenograft model. Human RS4;11 tumor cells were injected into nude mice and treatment started on day 11 when the tumor size reached approximately 100 mm^3. Cpd. No. 6 was administered via oral gavage at indicated doses and schedules. Cpd.

Read-outs that look alike come from different tables or passages of the source. Some results are limits rather than exact numbers.

Sequence of Bcl-xL (Q07817 whole entry): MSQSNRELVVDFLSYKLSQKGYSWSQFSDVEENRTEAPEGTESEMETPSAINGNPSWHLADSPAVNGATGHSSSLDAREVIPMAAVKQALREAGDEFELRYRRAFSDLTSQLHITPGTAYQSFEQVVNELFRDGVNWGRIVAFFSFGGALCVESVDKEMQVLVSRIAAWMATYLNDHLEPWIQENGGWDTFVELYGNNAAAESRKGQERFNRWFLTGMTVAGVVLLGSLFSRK
Sequence of Bcl-2 (P10415 whole entry): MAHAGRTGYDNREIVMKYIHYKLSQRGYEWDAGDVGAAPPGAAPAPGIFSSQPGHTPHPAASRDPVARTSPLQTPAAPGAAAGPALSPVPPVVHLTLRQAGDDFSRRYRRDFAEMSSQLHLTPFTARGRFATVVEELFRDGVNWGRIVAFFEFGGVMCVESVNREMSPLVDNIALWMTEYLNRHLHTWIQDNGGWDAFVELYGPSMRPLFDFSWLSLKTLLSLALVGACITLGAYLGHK
Sequence of Mcl-1 (Q07820 whole entry): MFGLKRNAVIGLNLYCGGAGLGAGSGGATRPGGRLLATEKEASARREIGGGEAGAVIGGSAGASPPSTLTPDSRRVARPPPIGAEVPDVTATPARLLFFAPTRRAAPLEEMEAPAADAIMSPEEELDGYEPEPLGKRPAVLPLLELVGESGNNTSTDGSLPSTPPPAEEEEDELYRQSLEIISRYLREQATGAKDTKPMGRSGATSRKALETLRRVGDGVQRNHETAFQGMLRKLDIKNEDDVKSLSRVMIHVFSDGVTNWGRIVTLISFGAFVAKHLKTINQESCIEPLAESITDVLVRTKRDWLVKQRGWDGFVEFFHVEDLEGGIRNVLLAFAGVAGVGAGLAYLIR

With “(R)-N-((4-(((1,4-dioxan-2-yl)methyl)amino)-3- nitrophenyl)sulfonyl)-2-((1H-pyrrolo[2,3- b]pyridin-5-yl)oxy)-4-(1-((6-(4-chlorophenyl)-2- oxaspiro[3.5]non-6-en-7-yl)methyl)-1,2,3,6- tetrahydropyridin-4-yl)benzamide [Cpd. No. 5]”, the IC50 in data set [1] came out at 22 nM.

In the case of `O=C(NS(=O)(=O)C1=CC2C(C=NN2CC2CCOCC2)C([N+](=O)[O-])=C1)c1ccc(N2CCN(CC3=C(c4ccc(Cl)cc4)CC4(CCC4)CC3)CC2)cc1Oc1cnc2[nH]ccc2c1` (stereo not drawn) [compound 62, 2-((1H-pyrrolo[2,3-b]pyridin-5-yl)oxy)-4-(4-((6-(4-chlorophenyl)spiro[3.5]non-6-en-7-yl)methyl)piperazin-1-yl)-N-((4-nitro-1-((tetrahydro-2H-pyran-4-yl)methyl)-3a,7a-dihydro-1H-indazol-6-yl)sulfonyl)benzamide], the IC50 is 46 nM in data set [1] (Homo sapiens, RS4-11, 96 h); 1.6 nM in data set [2]; 4 nM in data set [3].

In the case of “(R)-N-((4-(((1,4-dioxan-2-yl)methyl)amino)-3- nitrophenyl)sulfonyl)-2-((1H-pyrrolo[2,3- b]pyridin-5-yl)oxy)-4-(4-((6-(4-chlorophenyl)-2- oxaspiro[3.5]non-6-en-7-yl)methyl)piperazin-1- yl)benzamide [compound 8]”, the IC50 in data set [1] was 3.7 nM; in data set [4], over 5000 nM.

As to “2-((1H-pyrrolo[2,3-b]pyridin-5-yl)oxy)-4-(1-((6- (4-chlorophenyl)-2-oxaspiro[3.5]non-6-en-7- yl)methyl)-1,2,3,6-tetrahydropyridin-4-yl)-N-((3- nitro-4-(((tetrahydro-2H-pyran-4- yl)methyl)amino)phenyl)sulfonyl)benzamide [compound 9]”, in data set [1], the IC50 is 28 nM.

For `O=C(NS(=O)(=O)c1ccc(NC[C@H]2COCCO2)c([N+](=O)[O-])c1)c1ccc(N2CCN(CC3=C(c4ccc(Cl)cc4)CC4(CCC4)CC3)CC2)cc1Oc1cnc2[nH]ccc2c1` [Cpd. No. 6, (S)-N-((4-(((1,4-dioxan-2-yl)methyl)amino)-3-nitrophenyl)sulfonyl)-2-((1H-pyrrolo[2,3-b]pyridin-5-yl)oxy)-4-(4-((6-(4-chlorophenyl)spiro[3.5]non-6-en-7-yl)methyl)piperazin-1-yl)benzamide], in data set [5] (FIG. 3), the “antitumor activity (tumor growth)” value is on record as “inhibits tumor growth”. Besides, the mouse weight result in data set [5] (FIG. 4) is on record as “does not cause weight loss in mice”.

The record behind these values is US11718613B2, “N-(phenylsulfonyl)benzamides and related compounds as Bcl-2 inhibitors” (THE REGENTS OF THE UNIVERSITY OF MICHIGAN, priority 2016, dated 2023).
